# Values quoted from earlier work as cited in patent US20110224196A1, “TREATMENT OF O[…] APNEA SYNDROME WITH A COMBINATION OF A CARBONIC ANHYDRASE INHIBITOR AND AN […] AGENT” (Vivus, Inc., priority 2010, published 2011).
smiles,measurement,setting,value
"NC(=O)C[S+]([O-])C(c1ccccc1)c1ccccc1 (stereo not shown) [Modafinil, 2-[(diphenylmethy)sulfinyl]-N-acetamide]",solubility in acetone,acetone,sparingly or slightly soluble
same,solubility in cyclohexane,cyclohexane,insoluble
same,solubility in methanol,methanol,sparingly or slightly soluble
same,solubility in water,water,insoluble
